From ChEMBL document CHEMBL1201862, “PubChem BioAssay data set” (2004)
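These data come from cells grown in 96-well plates and exposed to compound for 48 hours at five concentrations. The concentration for 50% growth inhibition is given as GI50.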 Activity calls are given as the source filed them. No stated cut-off is given here; in the data, active = GI50 up to about 1.1 µM and inactive = higher.

Tests used:
Test in all cases: DTP human tumour cell line panel, 48 h
SNB-78 = tested on: SNB-78
HOP-18 = tested on: HOP-18
KM-20L2 = tested on: KM-20L2
M19-MEL = tested on: M19-MEL
DLD-1 = tested on: DLD-1
LXFL 529 = tested on: LXFL 529
RXF 631 = tested on: RXF 631
DMS-273 = tested on: DMS-273
XF498 = tested on: XF498

SMILES | GI50 (SNB-78) | GI50 (HOP-18) | GI50 (KM-20L2) | GI50 (M19-MEL) | GI50 (DLD-1) | GI50 (LXFL 529) | GI50 (RXF 631) | GI50 (DMS-273) | GI50 (XF498)
CC1(C)C=N[N+]2(C)C3C=CC(CC3)C12 (stereo unspecified) | > 100 µM (inactive) | > 100 µM (inactive) | > 100 µM (inactive) | > 100 µM (inactive) | > 100 µM (inactive) | > 100 µM (inactive) | > 100 µM (inactive) |  | 
Cc1ccc(S(=O)(=O)N(/N=C/C=C/c2ccccc2)c2nnc(-c3ccccc3)c(-c3ccccc3)n2)cc1 | 16.8 µM (inactive) |  | 17.9 µM (inactive) | 28.1 µM (inactive) | 21.9 µM (inactive) |  |  | 18.9 µM (inactive) | 
CN1C(c2ccccc2)CC(=NOCc2ccccc2)CC1c1ccccc1 (stereo unspecified) | 42.5 µM (inactive) | 48 µM (inactive) | > 80.2 µM (inactive) | > 100 µM (inactive) | 46.7 µM (inactive) | 16.8 µM (inactive) | 31.2 µM (inactive) | 33.7 µM (inactive) | > 100 µM (inactive)
CC(=O)/C(=C\c1cccc([N+](=O)[O-])c1)C(=O)Nc1ccccc1C | > 100 µM (inactive) | > 100 µM (inactive) | > 100 µM (inactive) | > 100 µM (inactive) | > 100 µM (inactive) | > 100 µM (inactive) |  |  | > 100 µM (inactive)
CSc1snc2sc3c(Cl)nnnc3c12 | 13.8 µM (inactive) | 19.1 µM (inactive) | 14 µM (inactive) | 9.35 µM (inactive) | 10 µM (inactive) | 2.11 µM (inactive) | 16.1 µM (inactive) | 11.4 µM (inactive) | 14.4 µM (inactive)
O=C1CCC[C@]2(CCCC(=O)N2)C1 | > 94 µM (inactive) | > 100 µM (inactive) | > 100 µM (inactive) | > 100 µM (inactive) | > 100 µM (inactive) | > 100 µM (inactive) | > 100 µM (inactive) | > 100 µM (inactive) | > 100 µM (inactive)
O=S(=O)(O)C(O)/C=C/c1ccccc1 (stereo unspecified) |  | > 100 µM (inactive) | > 100 µM (inactive) | > 100 µM (inactive) | > 100 µM (inactive) | > 100 µM (inactive) |  | > 100 µM (inactive) | 
O=C1NC(=O)C(C(=O)C(=O)Nc2ccc(Cl)cc2Cl)C(=O)N1 | > 100 µM (inactive) |  | > 100 µM (inactive) | > 100 µM (inactive) | > 100 µM (inactive) | > 100 µM (inactive) | > 100 µM (inactive) |  | 
COc1cccc(/C=C(\NC(C)=O)c2nc3cc(Cl)ccc3[nH]2)c1 | > 100 µM (inactive) |  | > 100 µM (inactive) | > 100 µM (inactive) | > 100 µM (inactive) | > 100 µM (inactive) |  |  | > 100 µM (inactive)
O=C(Nc1cccc(Cc2cccc(NC(=O)c3ccccc3)c2)c1)c1ccccc1 |  | 34.3 µM (inactive) | > 100 µM (inactive) | 63 µM (inactive) | 91.8 µM (inactive) | 28.7 µM (inactive) |  | 55 µM (inactive) | 
O=C(O)CNc1cc(-c2ccccc2)nc(NCC(=O)O)n1 | > 100 µM (inactive) | > 100 µM (inactive) | > 100 µM (inactive) | > 100 µM (inactive) | > 100 µM (inactive) | > 100 µM (inactive) | > 100 µM (inactive) | > 100 µM (inactive) | > 100 µM (inactive)
Cc1ccc(-c2cc(-c3ccco3)c(C#N)c(=O)n2C2OC(OC(=O)c3ccccc3)C(OC(=O)c3ccccc3)C2OC(=O)c2ccccc2)cc1 (stereo unspecified) | 83.6 µM (inactive) | > 100 µM (inactive) | > 100 µM (inactive) | > 100 µM (inactive) | > 100 µM (inactive) | > 100 µM (inactive) | > 100 µM (inactive) | 97.1 µM (inactive) | 
N#CC1=C(O)NC(O)=C(C#N)C1c1ccc(C2C(C#N)=C(O)NC(O)=C2C#N)cc1 | > 100 µM (inactive) | > 100 µM (inactive) | > 100 µM (inactive) | 67.8 µM (inactive) | 55.7 µM (inactive) | > 100 µM (inactive) | > 100 µM (inactive) | > 100 µM (inactive) | > 100 µM (inactive)
O=C(COc1ccc2c(=O)cc(-c3ccccc3)oc2c1)N1CCN(c2ccccc2)CC1 | > 100 µM (inactive) | 41.9 µM (inactive) | 37.7 µM (inactive) | 62.2 µM (inactive) |  | 34.1 µM (inactive) |  |  | 
CSc1nc(NC2OC(COC(C)=O)C(OC(C)=O)C(OC(C)=O)C2OC(C)=O)c(/N=C/C=N/c2c(NC3OC(COC(C)=O)C(OC(C)=O)C(OC(C)=O)C3OC(C)=O)nc(SC)[nH]c2=O)c(=O)[nH]1 (stereo unspecified) | > 100 µM (inactive) | > 100 µM (inactive) | > 100 µM (inactive) | > 100 µM (inactive) | > 100 µM (inactive) | > 100 µM (inactive) | > 100 µM (inactive) | > 100 µM (inactive) | 
CC1(Br)C(=O)NC(=O)N(C2CC(N=[N+]=[N-])C(CO)O2)C1N=[N+]=[N-] (stereo unspecified) | > 100 µM (inactive) |  | > 100 µM (inactive) | > 100 µM (inactive) | > 100 µM (inactive) | > 100 µM (inactive) | > 100 µM (inactive) | > 100 µM (inactive) | > 100 µM (inactive)
COc1ccc(/C=c2/sc3n(c2=O)NC2(CCC(C)CC2)NN=3)cc1 (stereo unspecified) | > 100 µM (inactive) |  | > 100 µM (inactive) | > 100 µM (inactive) | > 100 µM (inactive) | > 100 µM (inactive) |  | > 100 µM (inactive) | > 100 µM (inactive)
C=CCC(C(=O)OC)C1(C(=O)OC)c2[nH]c3ccccc3c2CCN1Cc1ccccc1 (stereo unspecified) |  |  | > 100 µM (inactive) | > 100 µM (inactive) | > 100 µM (inactive) |  |  |  | 
CNCC(=O)Nc1ccc2c(c1)C(=O)c1ccc(NC(=O)CNC)cc1C2=O | 3.05 µM (inactive) | < 0.01 µM (active) | 5.3 µM (inactive) |  | 9.64 µM (inactive) | 2.8 µM (inactive) |  | 2.6 µM (inactive) | 3.32 µM (inactive)
COc1c(C)c2c(c(O)c1C/C=C(\C)CCC(=O)O)C(=O)OC2 [MYCOPHENOLIC ACID] |  | 16.1 µM (inactive) |  | 1.28 µM (inactive) | 0.57 µM (active) | 0.693 µM (active) |  | 0.35 µM (active) | 
CC1=C(N2CC2)C(=O)c2nc3n(c2C1=O)CCC3O (stereo unspecified) | 0.0296 µM (active) | 36.6 µM (inactive) | 0.804 µM (active) | 1.54 µM (inactive) | 1.18 µM (inactive) | 0.679 µM (active) |  | 0.469 µM (active) | 14.9 µM (inactive)
COC1=CC(=O)C(O)=C(CC2(C)C(C)CCC3(C)C2CCCC3(C)C)C1=O (stereo unspecified) | 18.1 µM (inactive) | 2.65 µM (inactive) | 2.42 µM (inactive) | 2.16 µM (inactive) | 5.53 µM (inactive) | 5.41 µM (inactive) | 25.7 µM (inactive) | 3.47 µM (inactive) | 4.14 µM (inactive)
CC1(c2ccccc2Cl)C(C#N)C(=O)NC(=O)C1C#N (stereo unspecified) | 55.6 µM (inactive) |  | 36.1 µM (inactive) | 35.3 µM (inactive) | 68.7 µM (inactive) | 27 µM (inactive) |  | 33.6 µM (inactive) | 
O=C(OCN1C(=O)C2C3C=CC(C2C1=O)C1C2C(=O)N(COC(=O)C4CCCN4)C(=O)C2C31)C1CCCN1 (stereo unspecified) | > 100 µM (inactive) | > 100 µM (inactive) | 64.1 µM (inactive) | > 77.8 µM (inactive) | 34.2 µM (inactive) | 78.7 µM (inactive) | > 64.7 µM (inactive) | 38.5 µM (inactive) | > 75.9 µM (inactive)
